Reference: article PMC13233288, “Spider venom peptides Ht1a and Gg1a are toxic to honeybee parasite Varroa destructor by topical application” (npj Drug Discovery, 2026)
No end group written: not given here.

Experiments:
AmNaV = test: Two-electrode voltage clamp, AmNaV expressed in Xenopus laevis oocytes; type: biochemical, A. mellifera; settings: 500 nM sHt1a
Source text: (§1) To examine the activity of sHt1a against target and off-target arthropod voltage-gated sodium (NaV) channels, we used electrophysiological recordings of V. destructor (Vd) or A. mellifera (Am) NaV channels expressed in Xenopus laevis oocytes. The cDNA sequences of the VdNaV (in pGH19; kindly gifted by K. Dong[31]) and AmNaV channel (in pcDNA3.1; Genscript, USA) were confirmed by automated Sanger sequencing (Eurofins Genomics, Germany). RNA was synthesised using T7 polymerase (mMessage mMachine kit, Invitrogen, USA) after linearising the cDNA with an appropriate restriction enzyme (New England Biolabs, USA). NaV channel RNA was microinjected into defolliculated X. laevis oocytes (Nasco®, USA) which were then incubated for 2–3 days at 17 °C in Barth’s medium (in millimolar (mM): 96 NaCl, 2 KCl, 5 HEPES, 1 MgCl2, and 1.8 CaCl2 supplemented with 50 µg/mL gentamycin, pH 7.4 adjusted with NaOH (Sigma, USA)). The use of X. laevis complied with national and Flemish guidelines adhered to by the Ghent University Animal Care and Use Committee. Electrophysiological characteristics were studied using the two-electrode voltage-clamp technique (OC-725C; Warner Instruments, USA) with a 150-µL recording chamber as previously described. All data were filtered at 4 kHz (tunable active filter model 900, Frequency Devices Inc., USA) and digitised at 20 kHz using pClamp 10 software (Molecular Devices, USA). The external recording solution used was ND-100 (in mM: 100 NaCl, 5 HEPES, 1 MgCl2, and 1.8 CaCl2, pH 7.6 adjusted with NaOH; chemicals from Sigma, USA). Microelectrode (Narishige® PC-10 vertical puller) resistances were 0.5–1.0 MΩ when backfilled with 3 M KCl. All experiments were performed at room temperature (~22 °C).
(§2) For electrophysiological experiments, sHt1a dissolved at 50 µM in ND100 was added to the recording chamber containing ND100 to a final concentration of 500 nM. After current stabilisation, normalized conductance-voltage (G-V) and channel availability relationships were obtained by measuring steady-state currents upon stepwise depolarisation for 50 ms from a holding potential of –90 mV in 5 mV increments, followed by a 50 ms pulse at –20 mV. The data were fitted with a single Boltzmann function according to I/Imax (or G/Gmax) = [1+exp(-zF(V-V1/2)/RT)]^−1, where I/Imax is the normalised current amplitude, z is the equivalent charge, V1/2 is the half-activation voltage, F is Faraday’s constant, R is the gas constant, and T is the temperature in Kelvin. Off-line data analysis was performed using Clampfit 10 (Molecular Devices, USA), Excel (Microsoft Office) and Prism 10 (GraphPad). Tests for statistical differences included a student’s t-test for V1/2 values and a Kruskal–Wallis test for current inhibition, with p < 0.05 considered to be significant.

VdNaV = test: Two-electrode voltage clamp, VdNaV expressed in Xenopus laevis oocytes; type: biochemical, V. destructor; settings: for varroa vs honeybee NaV channel potency: VdNaV compared with AmNaV, 500 nM
Source text: as §1, §2

[1] = AmNav, mean ± SEM, n = 6 oocytes
[2] = VdNav, 500 nM sHt1a, mean ± SEM, n = 5 oocytes

## KYCAPRKAVCNTPADCCDKSSRCAYPNYGLGYYLDSEFFGKRKICSWRL (also: bicyclic or more (positions not given here)) [Ht1a, μ-gradutoxin-Ht1a]
AmNaV; ND-100 pH 7.6, ~22 °C, p = 0.0095 (Kruskal–Wallis)
  reduction in peak AmNaV current: 24.7 ± 7.2%
AmNaV; AmNaV, vs before treatment
  change in half-maximal activation or inactivation values: without a significant change
AmNaV; [1]
  Activation Hill slope: 3.62 ± 0.61
  Activation V1/2: –27.6 ± 1.3 mV
  Steady state inactivation Hill slope: –5.12 ± 1.44
  Steady state inactivation V1/2: –48.2 ± 1.0 mV
VdNaV; 500 nM sHt1a, ND-100 pH 7.6, ~22 °C, p = 0.0212 (Kruskal–Wallis)
  reduction in peak VdNaV current: 25.3 ± 7.8%
VdNaV
  varroa vs honeybee NaV channel potency: equal potency
VdNaV; listed as sHt1a
  varroa vs honeybee NaV channel potency: equally active
VdNaV; VdNaV, 500 nM sHt1a, vs before treatment
  change in half-maximal activation or inactivation values: without a significant change
VdNaV; [2]
  Activation Hill slope: 3.44 ± 0.55
  Activation V1/2: –17.7 ± 0.7 mV
  Steady state inactivation Hill slope: –4.90 ± 1.29
  Steady state inactivation V1/2: –40.8 ± 0.5 mV
VdNaV; authors' comparison of 500 nM sHt1a data (VdNaV, AmNaV) with literature IC50/EC50
  potency relative to other insect NaV channel targeting spider toxins: less potent than Tx4(6-1) (IC50 = 25 nM[33]) or Dc1a (EC50 = 65 nM[34]), but similarly potent to Aps III (IC50 = 540 nM[35]) and Jingzhaotoxin-I
